One block for each compound: values may come before it.
Experiments:
[1] = target: PLK4 (Homo sapiens, UniProt O00444); assay: Kinase inhibitory activity, full kinase panel; type: biochemical; conditions: single concentration of 1 μM, read-out: %Inhibitory ability
Experimental: (§1) In order to measure inhibitory activity (% inhibitory ability) against a protein kinase with respect to the compound of the present invention, a biochemical assay was performed in a full kinase panel shown in the following Table 1. As an experimental compound, the (S)-5-((3-fluorophenyl)ethynyl)-N-(piperidin-3-yl)-3-ureidothiophene-2-carboxamide synthesized in Example 24 was used.

[2] = target: PDGFRA (Homo sapiens, UniProt P16234); assay: Kinase inhibitory activity, full kinase panel; type: biochemical; conditions: single concentration of 1 μM, read-out: %Inhibitory ability
Experimental: as §1

[3] = target: DRAK1 (Homo sapiens, UniProt Q9UEE5); assay: Kinase inhibitory activity, full kinase panel; type: biochemical; conditions: single concentration of 1 μM, read-out: %Inhibitory ability
Experimental: as §1

[4] = target: MEK3 (Homo sapiens, UniProt P46734); assay: Kinase inhibitory activity, full kinase panel; type: biochemical; conditions: single concentration of 1 μM, read-out: %Inhibitory ability
Experimental: as §1

[5] = target: SIK (Homo sapiens, UniProt P57059); assay: Kinase inhibitory activity, full kinase panel; type: biochemical; conditions: single concentration of 1 μM, read-out: %Inhibitory ability
Experimental: as §1

[6] = target: PAK6 (Homo sapiens, UniProt Q9NQU5); assay: Kinase inhibitory activity, full kinase panel; type: biochemical; conditions: single concentration of 1 μM, read-out: %Inhibitory ability
Experimental: as §1

[7] = target: SBK1 (Homo sapiens, UniProt Q52WX2); assay: Kinase inhibitory activity, full kinase panel; type: biochemical; conditions: single concentration of 1 μM, read-out: %Inhibitory ability
Experimental: as §1

[8] = target: VEGFR2 (Homo sapiens, UniProt P35968); assay: Kinase inhibitory activity, full kinase panel; type: biochemical; conditions: single concentration of 1 μM, read-out: %Inhibitory ability
Experimental: as §1

[9] = target: ZAP70 (Homo sapiens, UniProt P43403); assay: Kinase inhibitory activity, full kinase panel; type: biochemical; conditions: single concentration of 1 μM, read-out: %Inhibitory ability
Experimental: as §1

[10] = target: RIPK4 (Homo sapiens, UniProt P57078); assay: Kinase inhibitory activity, full kinase panel; type: biochemical; conditions: single concentration of 1 μM, read-out: %Inhibitory ability
Experimental: as §1

[11] = target: MAP4K5 (Homo sapiens, UniProt Q9Y4K4); assay: Kinase inhibitory activity, full kinase panel; type: biochemical; conditions: single concentration of 1 μM, read-out: %Inhibitory ability
Experimental: as §1

[12] = target: MEK1 (Homo sapiens, UniProt Q02750); assay: Kinase inhibitory activity, full kinase panel; type: biochemical; conditions: single concentration of 1 μM, read-out: %Inhibitory ability
Experimental: as §1

[13] = target: MST1 (Homo sapiens, UniProt Q13043); assay: Kinase inhibitory activity, full kinase panel; type: biochemical; conditions: single concentration of 1 μM, read-out: %Inhibitory ability
Experimental: as §1

[14] = target: PIP5K2B (Homo sapiens, UniProt P78356); assay: Kinase inhibitory activity, full kinase panel; type: biochemical; conditions: single concentration of 1 μM, read-out: %Inhibitory ability
Experimental: as §1

[15] = target: HPK1 (Homo sapiens, UniProt Q92918); assay: Kinase inhibitory activity, full kinase panel; type: biochemical; conditions: single concentration of 1 μM, read-out: %Inhibitory ability
Experimental: as §1

[16] = target: MAPKAPK5 (Homo sapiens, UniProt Q8IW41); assay: Kinase inhibitory activity, full kinase panel; type: biochemical; conditions: single concentration of 1 μM, read-out: %Inhibitory ability
Experimental: as §1

[17] = target: RIOK1 (Homo sapiens, UniProt Q9BRS2); assay: Kinase inhibitory activity, full kinase panel; type: biochemical; conditions: single concentration of 1 μM, read-out: %Inhibitory ability
Experimental: as §1

[18] = target: DAPK1 (Homo sapiens, UniProt P53355); assay: Kinase inhibitory activity, full kinase panel; type: biochemical; conditions: single concentration of 1 μM, read-out: %Inhibitory ability
Experimental: as §1

[19] = target: MARK2 (Homo sapiens, UniProt Q7KZI7); assay: Kinase inhibitory activity, full kinase panel; type: biochemical; conditions: single concentration of 1 μM, read-out: %Inhibitory ability
Experimental: as §1

[20] = system: FLT3-ITD-F691L-D835Y Ba/F3 cells; assay: In vivo life-span (survival) in mouse AML model; conditions: for extension of lifespan compared with vehicle control: oral; for Median survival: qd
Experimental: (§2) Nude mice (5-6 weeks old)(Orient) were purchased and used after a week. Mice were anesthetized following IACUC approved animal protocol. FLT3-ITD F691L-D835Y, luc+ Ba/F3 cell (Established in-house) suspension (in 0.1 mL RPMI1640 (Welgene) of 1.0×10^6 cells) was injected into tail vein intravenously using a 29-G needle, and an tail mark was added to each animal for identification. After 6 days, the luminescence intensity was measured using IVIS (Perkin Elmer) to calculate the ROI intensity.
Each compound solution was prepared freshly just before administration. Compounds were administered orally using a mouse sondae once a day, 0.1 mL per mouse. Mice were humanely euthanized if animals experience 20% body weight loss.

[21] = system: FLT3-ITD-F691L-D835Y Ba/F3 cells; assay: Spleen size in mouse AML model; type: in vivo; conditions: 15, 30 mg/kg; after drug administration for 9 days
Experimental: as §2, with “intensity. Once ROI intensity reaches the study-desired minimum intensity (usually 2×106), mice were randomized into different treatment groups based on signal intensity.” for “intensity.”
Each compound was dissolved in NMP at 20× final concentration and diluted to 1× with the remaining vehicle components (vehicle: 5% NMP, 15% solutol (Sigma-aldrich), 30% PEG400 (Sigma-aldrich), 50% 0.05M citric acid (Sigma-aldrich)). Each compound solution was prepared freshly just before administration. […]
Mice were then euthanized by cervical dislocation while they were still under isoflurane anesthesia. The spleens from the mice were isolated and weighted, and spleen weight index was calculated as organ weight (mg) per gram of mouse body weight. […]
Statistical analysis of luminescence signal intensity, mouse body weight, and spleen/body weight ratio were evaluated using two-way ANOVA. […]

MARK2, sequence (Q7KZI7 whole entry, species assumed): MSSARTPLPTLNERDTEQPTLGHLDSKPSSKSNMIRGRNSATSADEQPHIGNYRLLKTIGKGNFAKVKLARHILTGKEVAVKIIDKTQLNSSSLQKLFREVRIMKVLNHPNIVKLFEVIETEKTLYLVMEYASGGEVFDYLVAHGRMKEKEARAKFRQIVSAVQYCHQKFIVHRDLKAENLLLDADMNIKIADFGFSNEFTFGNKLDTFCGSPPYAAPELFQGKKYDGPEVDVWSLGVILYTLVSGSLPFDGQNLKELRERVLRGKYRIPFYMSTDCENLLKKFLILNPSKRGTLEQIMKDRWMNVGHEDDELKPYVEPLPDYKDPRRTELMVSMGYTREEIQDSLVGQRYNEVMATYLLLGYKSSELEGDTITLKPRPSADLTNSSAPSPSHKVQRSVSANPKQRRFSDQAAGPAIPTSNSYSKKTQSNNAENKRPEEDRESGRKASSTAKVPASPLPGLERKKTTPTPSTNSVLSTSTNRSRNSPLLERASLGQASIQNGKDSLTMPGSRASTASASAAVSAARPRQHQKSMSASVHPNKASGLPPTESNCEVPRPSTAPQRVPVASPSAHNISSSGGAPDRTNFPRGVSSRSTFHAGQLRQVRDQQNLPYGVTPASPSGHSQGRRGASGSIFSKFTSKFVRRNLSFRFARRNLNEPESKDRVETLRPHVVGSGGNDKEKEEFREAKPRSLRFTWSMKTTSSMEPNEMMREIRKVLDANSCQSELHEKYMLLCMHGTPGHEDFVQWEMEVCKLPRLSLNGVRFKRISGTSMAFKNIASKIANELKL
SBK1, sequence (Q52WX2 whole entry): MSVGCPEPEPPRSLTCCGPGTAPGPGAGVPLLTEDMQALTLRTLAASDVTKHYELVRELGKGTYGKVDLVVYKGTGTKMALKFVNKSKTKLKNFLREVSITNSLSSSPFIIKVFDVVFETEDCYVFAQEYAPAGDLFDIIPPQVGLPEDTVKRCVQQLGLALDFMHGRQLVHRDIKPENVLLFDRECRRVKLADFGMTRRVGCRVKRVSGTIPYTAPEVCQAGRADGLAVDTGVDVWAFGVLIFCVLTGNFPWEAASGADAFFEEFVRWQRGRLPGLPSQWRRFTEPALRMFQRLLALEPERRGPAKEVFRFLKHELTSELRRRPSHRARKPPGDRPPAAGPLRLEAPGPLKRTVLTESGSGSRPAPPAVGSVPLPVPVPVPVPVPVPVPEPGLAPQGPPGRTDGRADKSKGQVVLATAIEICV
MEK3, sequence (P46734 whole entry, species assumed): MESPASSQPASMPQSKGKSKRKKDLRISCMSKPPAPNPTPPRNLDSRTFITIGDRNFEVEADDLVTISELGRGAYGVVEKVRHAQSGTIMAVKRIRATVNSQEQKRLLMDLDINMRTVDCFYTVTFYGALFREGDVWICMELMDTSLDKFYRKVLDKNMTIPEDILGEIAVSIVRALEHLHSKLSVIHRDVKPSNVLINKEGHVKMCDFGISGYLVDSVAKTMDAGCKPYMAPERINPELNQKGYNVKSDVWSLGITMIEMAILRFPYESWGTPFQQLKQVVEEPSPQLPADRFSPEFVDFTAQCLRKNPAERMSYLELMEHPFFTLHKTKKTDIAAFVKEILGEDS
RIOK1, sequence (Q9BRS2 whole entry): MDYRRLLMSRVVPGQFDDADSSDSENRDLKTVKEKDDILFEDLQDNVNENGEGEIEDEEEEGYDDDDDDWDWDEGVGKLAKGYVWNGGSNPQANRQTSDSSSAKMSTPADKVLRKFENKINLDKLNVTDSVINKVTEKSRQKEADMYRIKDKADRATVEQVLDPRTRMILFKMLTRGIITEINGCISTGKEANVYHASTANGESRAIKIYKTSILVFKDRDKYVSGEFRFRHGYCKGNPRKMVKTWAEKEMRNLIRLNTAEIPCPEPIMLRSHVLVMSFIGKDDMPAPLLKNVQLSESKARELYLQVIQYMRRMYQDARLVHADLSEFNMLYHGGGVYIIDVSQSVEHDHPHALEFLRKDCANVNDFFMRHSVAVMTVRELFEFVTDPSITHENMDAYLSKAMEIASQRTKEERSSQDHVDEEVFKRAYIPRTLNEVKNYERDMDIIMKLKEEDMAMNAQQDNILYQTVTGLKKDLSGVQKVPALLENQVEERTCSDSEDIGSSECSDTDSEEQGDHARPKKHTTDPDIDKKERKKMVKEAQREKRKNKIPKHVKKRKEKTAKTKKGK
PIP5K2B, sequence (P78356 whole entry): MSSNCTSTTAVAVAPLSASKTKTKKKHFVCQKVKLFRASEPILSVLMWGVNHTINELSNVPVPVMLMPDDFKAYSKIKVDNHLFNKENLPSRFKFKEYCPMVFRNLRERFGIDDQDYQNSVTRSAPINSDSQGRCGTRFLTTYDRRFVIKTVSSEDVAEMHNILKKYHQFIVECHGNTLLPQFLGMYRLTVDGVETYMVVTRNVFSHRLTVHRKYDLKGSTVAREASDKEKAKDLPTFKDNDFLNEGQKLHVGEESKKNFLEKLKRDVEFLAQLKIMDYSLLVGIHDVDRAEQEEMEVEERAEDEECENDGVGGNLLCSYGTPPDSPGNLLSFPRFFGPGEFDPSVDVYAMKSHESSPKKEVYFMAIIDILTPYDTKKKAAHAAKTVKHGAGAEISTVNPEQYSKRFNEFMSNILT
ZAP70, sequence (P43403 whole entry, species assumed): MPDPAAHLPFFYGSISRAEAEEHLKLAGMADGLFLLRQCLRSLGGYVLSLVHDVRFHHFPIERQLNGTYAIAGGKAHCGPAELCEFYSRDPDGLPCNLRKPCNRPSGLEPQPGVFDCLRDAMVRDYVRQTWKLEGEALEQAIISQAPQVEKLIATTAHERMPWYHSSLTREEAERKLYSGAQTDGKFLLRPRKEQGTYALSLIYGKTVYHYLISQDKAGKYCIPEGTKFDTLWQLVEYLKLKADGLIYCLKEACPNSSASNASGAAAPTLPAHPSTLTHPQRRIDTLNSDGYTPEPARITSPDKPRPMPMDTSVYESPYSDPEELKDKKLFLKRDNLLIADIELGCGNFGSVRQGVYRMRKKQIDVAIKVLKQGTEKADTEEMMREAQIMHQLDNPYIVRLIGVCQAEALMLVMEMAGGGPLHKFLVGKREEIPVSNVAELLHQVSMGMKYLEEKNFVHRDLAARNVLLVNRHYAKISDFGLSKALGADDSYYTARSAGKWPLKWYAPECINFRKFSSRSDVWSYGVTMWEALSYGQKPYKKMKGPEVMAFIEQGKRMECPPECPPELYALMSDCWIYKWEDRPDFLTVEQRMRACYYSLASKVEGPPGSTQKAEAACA
DAPK1, sequence (P53355 whole entry, species assumed): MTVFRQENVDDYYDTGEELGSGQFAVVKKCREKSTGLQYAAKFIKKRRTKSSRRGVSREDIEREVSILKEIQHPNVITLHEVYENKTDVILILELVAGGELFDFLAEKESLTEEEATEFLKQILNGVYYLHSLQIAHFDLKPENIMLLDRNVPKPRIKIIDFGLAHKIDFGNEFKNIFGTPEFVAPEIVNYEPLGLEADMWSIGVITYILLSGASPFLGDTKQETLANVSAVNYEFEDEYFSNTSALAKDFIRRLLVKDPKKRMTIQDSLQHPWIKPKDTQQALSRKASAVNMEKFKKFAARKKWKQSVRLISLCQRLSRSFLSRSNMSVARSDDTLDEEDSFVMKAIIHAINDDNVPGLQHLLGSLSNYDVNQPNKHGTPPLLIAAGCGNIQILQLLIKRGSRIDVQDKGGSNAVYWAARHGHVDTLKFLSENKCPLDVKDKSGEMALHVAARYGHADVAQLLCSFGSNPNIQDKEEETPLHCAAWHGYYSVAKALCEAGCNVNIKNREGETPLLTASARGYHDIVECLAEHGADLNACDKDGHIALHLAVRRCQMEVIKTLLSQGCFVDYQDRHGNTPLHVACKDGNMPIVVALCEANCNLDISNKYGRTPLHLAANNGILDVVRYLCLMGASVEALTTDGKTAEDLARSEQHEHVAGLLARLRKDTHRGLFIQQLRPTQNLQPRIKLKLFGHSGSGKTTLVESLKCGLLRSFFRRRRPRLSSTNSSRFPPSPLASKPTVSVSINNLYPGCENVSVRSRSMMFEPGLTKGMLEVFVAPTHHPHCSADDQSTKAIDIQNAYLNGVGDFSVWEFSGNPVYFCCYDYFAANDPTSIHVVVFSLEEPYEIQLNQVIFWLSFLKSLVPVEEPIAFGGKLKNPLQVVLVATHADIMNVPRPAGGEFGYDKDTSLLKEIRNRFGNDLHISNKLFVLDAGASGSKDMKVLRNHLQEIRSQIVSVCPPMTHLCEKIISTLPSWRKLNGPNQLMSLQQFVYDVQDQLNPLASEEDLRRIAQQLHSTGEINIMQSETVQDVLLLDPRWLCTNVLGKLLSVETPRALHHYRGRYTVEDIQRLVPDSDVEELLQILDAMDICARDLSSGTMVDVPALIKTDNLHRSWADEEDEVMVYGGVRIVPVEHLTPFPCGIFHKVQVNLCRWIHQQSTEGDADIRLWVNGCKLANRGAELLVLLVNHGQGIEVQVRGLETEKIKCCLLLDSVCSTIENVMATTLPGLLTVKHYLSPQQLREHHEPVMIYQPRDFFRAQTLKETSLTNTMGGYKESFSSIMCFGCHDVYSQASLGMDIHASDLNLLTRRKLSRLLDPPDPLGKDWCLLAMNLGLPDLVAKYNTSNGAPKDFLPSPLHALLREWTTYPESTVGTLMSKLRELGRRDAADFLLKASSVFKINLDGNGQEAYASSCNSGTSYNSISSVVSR
DRAK1, sequence (Q9UEE5 whole entry, species assumed): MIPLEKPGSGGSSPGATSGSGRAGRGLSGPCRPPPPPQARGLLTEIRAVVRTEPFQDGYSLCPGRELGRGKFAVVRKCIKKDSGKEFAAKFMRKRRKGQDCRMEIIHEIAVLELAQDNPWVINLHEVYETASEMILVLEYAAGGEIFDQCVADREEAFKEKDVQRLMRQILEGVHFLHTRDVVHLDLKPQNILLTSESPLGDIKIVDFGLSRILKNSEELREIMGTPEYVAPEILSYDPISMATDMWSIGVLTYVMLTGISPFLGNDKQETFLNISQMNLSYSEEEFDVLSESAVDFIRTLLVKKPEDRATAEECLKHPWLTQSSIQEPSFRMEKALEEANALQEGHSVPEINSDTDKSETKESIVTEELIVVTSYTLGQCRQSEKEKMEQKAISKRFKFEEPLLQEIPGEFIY

inhibition at 1 µM [1]: 81% | inhibition at 1 µM [2]: 95.8% | inhibition at 1 µM [3]: 99.5% | inhibition at 1 µM [4]: 83% | inhibition at 1 µM [5]: 80% | inhibition at 1 µM [6]: 90.3% | inhibition at 1 µM [7]: 66% | inhibition at 1 µM [8]: 73% | inhibition at 1 µM [9]: 63% | inhibition at 1 µM [10]: 97.6% | inhibition at 1 µM [11]: 85% | inhibition at 1 µM [12]: 96.3% | inhibition at 1 µM [13]: 96.6% | inhibition at 1 µM [14]: 74% | inhibition at 1 µM [15]: 78% | inhibition at 1 µM [16]: 82% | inhibition at 1 µM [17]: 77% | inhibition at 1 µM [18]: 94.4% | inhibition at 1 µM [19]: 79%
SMILES: Cc1ccc(C#Cc2cc(NC(N)=O)c(C(=O)N[C@H]3CCCNC3)s2)cc1 [Example 24, (S)—N-(piperidin-3-yl)-5-(p-tolylethynyl)-3-ureidothiophene-2-carboxamide]

SMILES: NC(=O)Nc1cc(C#Cc2cccc(F)c2)sc1C(=O)N[C@H]1CCCNC1 [Example 22, (S)-5-((3-fluorophenyl)ethynyl)-N-(piperidin-3-yl)-3-ureidothiophene-2-carboxamide]
extension of lifespan compared with vehicle control ([20]; 15 mpk): 26 days | Median survival ([20]; 15 mpk, po): 23 | extension of lifespan compared with vehicle control ([20]; 30 mpk): 29 days | Median survival ([20]; 30 mpk, po): 27 | life-span of the mouse model (in words) ([20]; po, qd, 15, 30 mg/kg): extended significantly the life-span | spleen size (spleen weight over mouse body weight) [21]: reduced to the disease free spleen size

Source: patent US10442796B2, “2,3,5-substituted thiophene compound as protein kinase inhibitor” (KOREA INSTITUTE OF SCIENCE AND TECHNOLOGY, priority 2016, dated 2019)
